Experimental data taken from article PMC8373216, “Development and Preclinical Evaluation of New Inhaled Lipoglycopeptides for the Treatment of Persistent Pulmonary Methicillin-Resistant Staphylococcus aureus Infections” (Antimicrobial Agents and Chemotherapy, 2021).
Converted amounts (≈) assume the structure as drawn. Where two headings read alike, the source gives them in different places.

Experiments:
[1] = test system: MRSA ATCC BAA 1556 (USA300); test: In-house broth microdilution MIC screening; format: cell-based, Staphylococcus aureus; conditions: Staphylococcus aureus; broth microdilution; read-out: MIC Value, MRSA ATCC BAA 1556
MSSA ATCC 29213 = test: In-house broth microdilution MIC screening; format: cell-based; conditions: Staphylococcus aureus; broth microdilution; read-out: MIC Value, MSSA ATCC 29213
[2] = format: physicochemical; conditions: pH 8
Description: 40 to the primary metabolite.
41 percent degradation is defined as follows:
[LLLLPPLL ] + [MMPPPPDDMM DDMMDDPPPP ]
45 Enzymes studied include :
108 Table S1: Enzyme hydrolysis of RV62 and RV94 was measured as a function of time in PBS (pH 8) at 37
109 °C. Control samples in the absence of enzyme were included as […]. Samples were analyzed
110 by HPLC detecting the parent RV derivative (RV62 or RV94).
RV Percent RV derivative remaining in HPLC chromatograph, % […]

[3] = Single-dose nebulized nose-only inhalation PK in healthy rats; format: in vivo, rat; conditions: male, Sprague Dawley, rat, in vivo
Description: Rats were acclimated in the study facility for approximately 1 week prior to study start. Ten or eleven rats per cohort were loaded into the chamber at the time of dosing. […] An additional airflow set to 6 liters/min was admixed with the nebulizer output to further direct the test articles to the animals. […] The remaining port on the chamber was fit with an aerosol sampling filter for dose determination over a 5 min sampling period. The average dose delivered to the nose of each animal was calculated using an algorithm that was previously described ([49]). […] Animals were euthanized for collection of whole lungs and plasma at time points ranging from immediate postdose (IPD; approximately 30 min after dosing for nebulization) to 168 h postdose (7 days). Drugs were extracted from tissues using customized protein precipitation methods with an appropriate internal standard for each compound and transferred for analysis by LC-MS/MS (Sciex API4500 or API6500+ mass spectrometer [Sciex, Framingham, MA]). GraphPad Prism (La Jolla, CA) was used for statistical analyses and data plotting. […] The data were applied to a noncompartmental analysis after extravascular dosing input and fit to a linear up/log down model. Statistical analysis of in vitro intracellular and biofilm activity was based on a two-way ANOVA with a Bonferroni post test. In vivo statistical analysis was based on the Kolmogorov-Smirnov test.

For `CCCCCCCCCCCC(=O)NCCNC1(C)CC(OC2C(Oc3c4cc5cc3Oc3ccc(cc3Cl)C(O)C3NC(=O)C(NC(=O)C5NC(=O)C(CC(N)=O)NC(=O)C(NC(=O)C(CC(C)C)NC)C(O)c5ccc(c(Cl)c5)O4)c4ccc(O)c(c4)-c4c(O)cc(O)cc4C(C(=O)O)NC3=O)OC(CO)C(O)C2O)OC(C)C1O` (stereo not drawn) [RV62], the MIC [1] was 0.016 µg/mL (≈ 9.55 nM), the MIC (MSSA ATCC 29213) was 0.016 µg/mL (≈ 9.55 nM) and the “Percent RV derivative remaining in HPLC chromatograph” value (“Percent RV derivative remaining” for short) ([2]; 0 h) was 97.14%. For the same compound, the “Percent RV derivative remaining” value ([2]; 0.5 h) was 97.14%, the “Percent RV derivative remaining” value ([2]; 1 h) was 97.38% and the “Percent RV derivative remaining” value ([2]; 2 h) was 97.07%. The Pulmonary dose [3] was 0.15 mg/kg, the “Time to full conversion to hydrolysis product in the lung” value [3] was at most 24 h and the “Drug lung level at 120 h” value ([3]; 120 h) was 0.1%. For the same compound, the “Primary hydrolysis byproduct lung level at 120 h” value ([3]; 120 h) was 107%, the Kp ([3]; inhaled or intranasal) was 1550 and the “Lung AUC0-∞” value ([3]; inhaled or intranasal) was 317 µg·h/g. For the same compound, the “Lung Cmax” value ([3]; inhaled or intranasal) was 30 µg/g, the “Lung t1/2” value ([3]; inhaled or intranasal) was 11 h and the “Plasma Cmax” value ([3]; inhaled or intranasal) was 20 ng/mL.
